The values below come from publication PMC9950073, “Alleviation of arthritis through prevention of neutrophil extracellular traps by an orally available inhibitor of protein arginine deiminase 4” (Scientific Reports, 2023).

Data set [1] can be described thus: Microsomal stability, DLM. Type of data set: in vitro ADME, dog. Conditions: 1 µM, liver microsomes 0.5 mg/mL; one range given for HLM/MLM/DLM/RLM. As to the method: Microsomal stability: Liver microsomes (0.5 mg/mL) from different species were incubated with JBI-589 (1 µM) with or without NADPH (1 mM) at 37 °C for 30 min in potassium phosphate buffer (pH 7.4) and then reaction was stopped with quenching solution (0.5% Formic acid in internal standard (IS) containing ACN). Resulting samples were centrifuged and supernatant was taken for LC–MS/MS analysis. Percent metabolism was calculated as follows: % Metabolized: [1 − (test area ratio/control area ratio)] *100.

The next data set has as its system mouse neutrophils. The data set is described as follows: In vitro NET assay, mouse neutrophils. Type of data set: cell-based. Conditions: pretreatment 10 μM for 15 min, ionomycin 4 µM 4 h. As to the method:
Mouse peripheral blood was collected by retro-orbital puncture in ethylenediaminetetraacetic acid (EDTA) anticoagulated buffer supplemented with 1% endotoxin-free BSA in sterile PBS. Neutrophils were isolated by Percoll gradient centrifugation as described previously. The purity of neutrophils was more than 90% as confirmed by the Wright-Giemsa stain.
Mouse or human neutrophils were resuspended in HEPES-supplemented phenol red-free RPMI1640 medium and 1.5 × 10^4 cells were seeded per well in a 96-well plate. After incubating for 20 min at 37 °C and 5% CO2, the cells were stimulated with vehicle control or ionomycin (Sigma, Catalog No: I24222) (4 µM) for 4 h. Neutrophils were fixed with 4% paraformaldehyde (PFA), washed and permeabilized (0.1% Triton X-100, 0.1% sodium citrate) for 10 min at 4 °C. Subsequently, neutrophils were incubated with blocking buffer (2.5% BSA, 0.5% Tween-20 in 1 × PBS) at room temperature for an hour followed by overnight incubation with the primary antibody against citrullinated histone H4 (H4Cit, 1:250, catalog number: 07-596, Millipore, Burlington, MA). […] Images were obtained with a Zeiss Axiovert 200 M wide-field fluorescence microscope (Zeiss, Oberkochen, Germany) with the Zeiss AxioVision software. The percentages of H4Cit positive neutrophils and neutrophil extracellular traps (NETs) were calculated by quantifying more than 200 randomly selected cells. […]

A further data set concerns the target T1, CYP3A4 (Homo sapiens, UniProt P08684).
T1 construct: from tissue; host or cells: human liver microsomes
The data set is described as follows: CYP inhibition in human liver microsome, CYP3A4. Type of data set: in vitro ADME. As to the method: (§1) CYP inhibition: Human liver microsome (0.1–0.5 mg/mL for various CYPs) and appropriate probe substrates (2.5–20 µM) were incubated in potassium phosphate buffer with or without JBI-589 for 5 min at 37 °C. The reaction was initiated by addition of NADPH (1 mM), incubated at 37 °C for 10 min and quenched (0.5% Formic acid in internal standard (IS) containing ACN). Samples were then centrifuged and taken for LC–MS/MS analysis. Percent change in metabolite formation for each substrate under above conditions using formula: Percent inhibition = [1 − (test area ratio/control area ratio)] *100.

A further data set has as its target T2, CYP2C19 (Homo sapiens, UniProt P33261).
T2 construct: from tissue; host or cells: human liver microsomes
The data set is described as follows: CYP inhibition in human liver microsome, CYP2C19. Type of data set: in vitro ADME. As to the method: as §1

A short description of the next data set: Solubility. Type of data set: physicochemical. From the text:
Supplement 41598_2023_30246_MOESM1_ESM.docx, table 2: Supplementary Table S2. In vitro ADME parameters of JBI-589 | column: 90

[2] abbreviates: predicted from % inhibition, text says major CYPs tested.

pIC50: −log10 of the molar value. Converted amounts (≈) assume the structure as drawn. Some results are limits rather than exact numbers.

T1 sequence (P08684 whole entry): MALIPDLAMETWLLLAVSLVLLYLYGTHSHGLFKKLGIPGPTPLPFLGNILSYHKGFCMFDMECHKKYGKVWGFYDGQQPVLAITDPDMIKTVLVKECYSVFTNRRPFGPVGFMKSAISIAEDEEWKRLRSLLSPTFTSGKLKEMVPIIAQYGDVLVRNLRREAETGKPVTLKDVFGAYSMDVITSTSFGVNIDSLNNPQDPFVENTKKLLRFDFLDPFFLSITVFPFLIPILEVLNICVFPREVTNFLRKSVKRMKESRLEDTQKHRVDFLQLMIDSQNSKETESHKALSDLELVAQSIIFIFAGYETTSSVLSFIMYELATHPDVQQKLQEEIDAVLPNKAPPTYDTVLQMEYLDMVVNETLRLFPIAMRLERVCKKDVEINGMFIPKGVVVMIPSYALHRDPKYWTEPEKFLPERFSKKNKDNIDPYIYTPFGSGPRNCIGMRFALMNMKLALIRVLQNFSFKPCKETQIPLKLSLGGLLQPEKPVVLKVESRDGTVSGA
T2 sequence (P33261 whole entry): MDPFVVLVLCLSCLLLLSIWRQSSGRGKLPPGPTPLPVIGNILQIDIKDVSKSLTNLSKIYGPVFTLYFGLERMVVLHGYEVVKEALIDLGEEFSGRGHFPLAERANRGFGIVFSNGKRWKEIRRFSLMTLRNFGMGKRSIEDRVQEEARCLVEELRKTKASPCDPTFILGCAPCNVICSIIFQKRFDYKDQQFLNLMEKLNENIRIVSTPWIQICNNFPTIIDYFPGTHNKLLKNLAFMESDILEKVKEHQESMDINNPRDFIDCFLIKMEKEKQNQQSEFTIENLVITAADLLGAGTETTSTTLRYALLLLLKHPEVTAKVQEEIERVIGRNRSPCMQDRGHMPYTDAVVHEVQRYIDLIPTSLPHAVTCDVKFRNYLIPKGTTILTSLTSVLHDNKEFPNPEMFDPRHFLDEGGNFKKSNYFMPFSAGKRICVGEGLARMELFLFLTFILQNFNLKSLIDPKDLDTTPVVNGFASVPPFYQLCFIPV

On to `Cc1c(-c2cc3ccccc3n2Cc2ccc(F)cc2)nc2cc(C(=O)N3CCC[C@@H](N)C3)ccn12` [JBI-589, (R)-(3-aminopiperidin-1-yl)(2-(1-(4-fluorobenzyl)-1H-indol-2-yl)-3-methylimidazo[1,2-a]pyridin-7-yl)methanone], for which, in data set [1], the “DLM % metabolized @ 30 min” value is 25-50%. Moreover, the H4Cit positivity entry in the data set with mouse neutrophils was “markedly diminished”. Also, the NET formation result in the data set on mouse neutrophils is given as “markedly diminished”. For the same compound, the inhibition at 10 min, 10 µM was < 50% on CYP3A4 (human liver microsomes, 10 µM, human liver microsome, read-out: CYP3A4 inhibition (% inh @10 µM)) and < 50% on CYP2C19 (human liver microsomes, 10 µM, human liver microsome, read-out: CYP2C19 inhibition (% inh @10 µM)). The pIC50 on CYP3A4 (setting [2]) and at CYP2C19 (setting [2]) was < 5.00 each time. This compound also had a solubility in the data set “Solubility” of 90 µM (≈ 43.3 µg/mL).
